One may read the Kd as the equilibrium constant for the complex coming apart. A higher Kd goes with lower affinity.

Like-named read-outs stand apart in the source and are kept apart here. Ends that are not written are not given here.

The target of one data set is SPase I Δ2-75 (Escherichia coli, UniProt P00803). The following applies: data not shown.
The target of data set [1] is T1, KAP25 alkaline phosphatase signal peptide signal peptide (Escherichia coli, UniProt P00634 = phosphatase).
T1 chain: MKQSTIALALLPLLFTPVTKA
The data set can be described thus: fluorescence.

Turning to “KKKMKQSTIALALLPLLFTPVTKARTPEKKK-NH2 [KAP25]”, the “cleavage of KAP25 signal peptide” value on SPase I Δ2-75 (24 hours of incubation with the enzyme) was “about 7%”; at SPase I Δ2-75 (36 hours of incubation with the enzyme), about 19%; on SPase I Δ2-75 (48 hours of incubation with the enzyme), about 27%.

B1: Signal peptidase I cytoplasmic domain (protein)
chain: IVRSFIYEPFQIPSGSMMPTLLIGDFILVEKFAYGIKDPIYQKTLIETGHPKRGDIVVFKYPEDPKLDYIKRAVGLPGDKVTYDPVSKELTIQPGCSSGQACENALPVTYSNVEPSDFVQTFSRRNGGEATSGFFEVPKNETKENGIRLSERKETLGDVTHRILTVPIAQDQVGMYYQQPGQQLATWIVPPGQYFMMGDNRDNSADSRYWGFVPEANLVGRATAIWMSFDKQEGEWPTGLRLSRIGGIH
In data set [1], B1 yielded a Kd of 250 nM.
